Literature values, collected in patent publication US20040096492A1, “Cicatrizant hydrocolloidal patch containing hyaluronic acid and chondroitin sulphate” (priority 2001, published 2004).

System: full thickness (300 mm^2) cutaneous wound
Settings: rats

In the case of sodium chondroitin sulphate, the “residual area in the treated group relative to the control group” value (8 days after the second application of 30 mg) is listed as “half”, the “reduction of the damaged surface (planimetry)” value (one or two applications of 30 mg, vs control) is listed as “more rapid” and the “clinical signs connected with the lesion (edema-exudate)” value (vs control) is listed as “decreased more quickly”.
